Like-named read-outs stand apart in the source and are kept apart here.
Columns and labels:
BCRP = biological target: T1, BCRP (Homo sapiens, UniProt Q9UNQ0); assay: in vitro; format: in vitro ADME; details: dog
T1 construct: expressed in transfected cells; host or cells: MDCK (canine kidney) cells expressing BCRP
T1 sequence (Q9UNQ0 1-655): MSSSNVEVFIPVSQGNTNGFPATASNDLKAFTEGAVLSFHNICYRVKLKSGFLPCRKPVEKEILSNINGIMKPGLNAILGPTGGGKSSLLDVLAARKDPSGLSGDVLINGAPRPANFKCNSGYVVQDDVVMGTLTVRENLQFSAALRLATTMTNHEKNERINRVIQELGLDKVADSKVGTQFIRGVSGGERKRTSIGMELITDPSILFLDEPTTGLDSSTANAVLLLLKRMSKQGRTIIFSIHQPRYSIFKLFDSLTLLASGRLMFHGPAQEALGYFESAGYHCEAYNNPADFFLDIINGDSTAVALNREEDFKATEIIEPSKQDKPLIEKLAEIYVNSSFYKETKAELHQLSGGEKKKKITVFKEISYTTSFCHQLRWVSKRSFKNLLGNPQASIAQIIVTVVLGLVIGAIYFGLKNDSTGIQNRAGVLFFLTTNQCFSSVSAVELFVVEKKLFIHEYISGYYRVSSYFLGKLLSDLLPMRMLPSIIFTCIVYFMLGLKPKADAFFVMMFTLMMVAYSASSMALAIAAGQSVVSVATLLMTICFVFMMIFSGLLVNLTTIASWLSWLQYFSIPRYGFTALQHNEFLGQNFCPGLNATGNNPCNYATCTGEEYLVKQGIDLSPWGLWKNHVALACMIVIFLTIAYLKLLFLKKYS
Source text: (§1) As pretargeting is a 2-component system, an ^18F-Tz was developed to be CNS-penetrant based on cnsPET-MPO modeling (Zhang, L., et al. (2018). J Med Chem 61(8): 3296-3308).

[1] = set-up: species or system mice; details: mouse, in vivo, 10 min
Source text: as §1

[2] = Pretargeted PET/CT imaging, ASO-TCO i.t. then 18F-Tz i.v.; format: in vivo, Sprague-Dawley rats
Description: Sprague-Dawley rats were administered ASO-TCO intrathecally (2.5 mM in 30 μL saline). After either 24 hours (center) or 168 hours (right), those rats were then injected I.V. with ^18F-537-Tz (22-30 MBq; […]; 0.2 nmol). Rats were imaged by PET-CT from 75-90 min. post-injection of radiotracer. Control rats (left) received saline only.
FIG. 5 is a bar graph showing Regions of Interest (ROI) drawn from the PET data. Ratios were obtained of % ID/g in tissue of interest (brain and spine) to the reference region (heart). […] Lanes in bar graph depicted from left to right: ASO-TCO (brain:heart); Naive (brain:heart); ASO-TCO (spine:heart); and Naive (spine:heart).
Rats were administered Malat1 ASO-TCO intrathecally (I.T.) and 24 hours later were given ^18F-Tz intravenously (I.V.). They were then imaged 75-90 p.i. by PET/CT.
The same uptake is not seen in rats that received only the ^18F-Tz radiotracer.

[3] = rat, in vivo, 1 mg/kg
Description: Dynamic PET scans were performed with arterial sampling to determine parent fraction of the tracer ^18F-537-Tz in baseline and pretargeted scans. Baseline imaging with a comparison to a homologous block with non-radioactive compound ^19F-537-Tz at 1 mg/kg was performed on a single rat, where non-radioactive compound was administered i.v. 5 min before injection of tracer. Next, three additional rats were imaged at baseline with no ASO-TCO administered. A final three rats received pretargeted scans and were dosed intrathecally with 0.56 mg Malat1 ASO-TCO in 30 μL saline followed by a 40 μL saline flush. 24 h after injection of the ASO, ^18F-537-Tz was injected intravenously and dynamic PET imaging performed.
A metabolite analysis method was developed to enable the tracer kinetic modelling using metabolite corrected plasma activity as an input function. The plasma radioactivity extraction efficiency for all samples was determined and was satisfactory using 1:1 plasma:ACN. The recovery from the HPLC column of the injected radioactivity was determined for each plasma extract injected. Good recovery of the injected radioactivity from the HPLC column was obtained for each plasma extract injection. For the 3 baseline scans, the parent compound fraction of the total activity found in plasma was 86-90% at 5 min, and this fraction decreased to 66-74% at 60 min after ^18F-537-Tz injection. […]

[4] = Dynamic PET/CT of brain in NHP, baseline and post Malat1 ASO-TCO; format: in vivo; details: cynomolgus monkey
Description: The pretargeting PET tracer ^18F-537-Tz was tested in a cynomolgus monkey, including baseline scans and a homologous blocking scan. The monkey was then dosed with Malat1 ASO-TCO and scanned again at 24 h and 168 h.
Dynamic PET scans (0-120 min) with arterial input function were performed on a female cynomolgous monkey using ^18F-537-Tz (5.7±0.7 mCi, 0.14±0.12 μg) in order to evaluate the tracer's efficacy in non-human primates. Parent fraction of tracer in arterial plasma was determined by extracting tracer using acetonitrile and analysis by radioHPLC. Baseline scans were performed first, measuring tracer kinetics in the brain. Malat1 ASO-TCO (20 mg in 2.4 mL aCSF) was then injected intrathecally under fluoroscopic guidance and ^18F-537-Tz PET/CT imaging performed at 24 h and 168 h under isoflurane anesthesia. Imaging data were co-registered to a cyno brain atlas, and TAC in subregions of interest were derived from them. Static PET/CT scans were acquired in each imaging session, with the field of view (FOV) oriented to capture the spine. This scan took place 130-160 min p.i. of tracer, and an ROI drawn over the spinal cord with muscle as a reference region.

Microsome stability = format: in vitro ADME; details: microsomes; read-out: Microsome Stability t1/2
[5] = Plasma protein binding (PPB); format: in vitro ADME; details: rat, read-out: PPB (rat) unbound
Source text: as §1

[6] = rats treated with ASO-TCO vs control rats that received only tracer, P<0.005

For `O=C(Cc1ccc(-c2nncnn2)cc1)NCC[18F]` [Compound 1], the efflux ratio (BCRP) was 0.51, the brain uptake [1] was 1.7±0.9 % ID and the “uptake of tracer in brain and spinal cord (PET/CT images)” value ([2]; rats given Malat1 ASO-TCO I.T. 24 hours before tracer I.V., imaged 75-90 p.i.) was “specific uptake”. For the same compound, the “Brain-to-heart ratio from ROIs” value [2, 6] was “significantly higher”, the “spine-to-heart ratio from ROIs” value [2, 6] was “significantly higher” and the “parent compound fraction of total activity in plasma” value ([3]; 5 min) was 82%. For the same compound, the “parent compound fraction of total activity in plasma” value ([3]; 60 min) was 62%, the “uptake of the tracer in the brain, baseline PET/CT” value ([4]; 2-hour scan) was “good uptake” and the “SUV uptake, baseline vs post-ASO scans (whole brain ROI)” value ([4]; 24 h and 7 days after Malat1 ASO-TCO i.t.) was “No significant different”. The “difference in SUV between baseline and pretargeted scans in the brain” value ([4]; normalized TACs, final timepoint) was roughly 10%, the half-life (Microsome stability) was 1.4 h and the fraction unbound [5] was 0.375.
